Reference: PMC7017074 (Cancers, 2020)

Key:
[1] = Serum drug concentration following an intravenous injection; type: in vivo, Balb/c mice
Experimental: The mice were sacrificed after 2 h and 24 h of tail-vein injection (n = 5). The organs such as the liver, kidney, heart, spleen, lungs, and brain, as well as the tumor tissues, were isolated and kept in lysis buffer (pH 7.4) and kept at −150 °C in a freezer until further analysis. Additionally, the weights of all the organs and tumor tissues were measured for quantitative analysis of the presence of drug-loaded NPs.
To determine the serum level of total drug-loaded NPs, blood samples of all the mice treated (n = 5) were collected by cardiac puncture using a 1-mL syringe with a 25G needle. A secondary method of euthanasia was performed after a cardiac puncture to sacrifice the animal. The blood samples were collected at two time points of analysis (2 h and 24 h of treatment). The blood samples were allowed to clot by leaving them at room temperature and then centrifuged at 10,000 rpm for 30 min at 4 °C to collect the supernatant serum. Afterward, 100 µL of each serum sample was collected and stored at −80 °C until it was assayed. The fluorescence emission of serum was measured using Perkin Elmer 2030 manager software attached to a 2030 multilabel reader victor X5 (Perkin Elmer) at 485/535 nm. The data were illustrated as means ± SD in RFU/100 µL of serum.

[2] = Animal biodistribution study (organ and tumor distribution of DOX); type: in vivo, Balb/c mice; conditions: for DOX in heart / DOX in kidney / DOX in liver / DOX in lungs / DOX in spleen / DOX in tumor: 4T1 tumor mice, IV DOX 5 mg/kg
Experimental: Organs were homogenized and lysed with a lysis reagent (sodium fluoride and stable stock lysis buffer). The mixture was centrifuged at 8000 rpm at 4 °C for 50 min. The supernatant was collected in 1.5-mL microcentrifuge tubes. […] The data were presented as means ± SD in relative fluorescence units (RFU)/mg of organ weight.

4T1 cells = test: Tumor regression study in murine breast cancer model; type: in vivo, Balb/c mice
Experimental: Murine breast cancer-derived 4T1 cells were cultured in complete DMEM (cDMEM) medium (pH 7.4) containing 1% penicillin and streptomycin antibiotic and 10% FBS in a 25-cm^2 flask, and the cell-containing flask was placed in a humidified incubator at 37 °C with 5% CO2. The cells were collected from the exponential growth phase and exposed to the trypsinization process, followed by repeated washing through centrifugation steps; they were then stained with trypan blue, counted using a hemocytometer, and then re-suspended in cDMEM medium at a concentration of 10^6 cells/mL. From this cell stock medium, the calculated volume of cell-containing medium was mixed with 100 µL of PBS (pH 7.4) to ensure 10^5 cells/100 µL for injecting in an animal model.
All animals were kept under 12-h/12-h light/dark conditions with free access to ab libitum and water.
Approximately 1 × 10^5 4T1 cells/100 µL in PBS were subcutaneously injected on the mammary pad. […] The length and width of an outgrowth tumor were estimated in mm by using a digital Vernier caliper over the period of 27 days, and the mice were sacrificed humanely via euthanasia, followed by measuring the weight of different organs of the mice. The body weights of mice with an induced tumor were measured in three-day intervals. The tumor volume data were presented as means ± SD of five different mice from each group. The following formula was used to calculate the tumor volume: Tumour volume (mm^3)=1/2 (Length×Width^2).
All the different mixtures with or without the drug were placed in an incubator for 30 min at 37 °C.
For the tumor regression study, one group of tumor-bearing mice was kept untreated as a negative control, the other tumor-bearing mice groups were treated with drug-free NPs or CYP only (dose of 0.3 mg/kg) as a positive control, and the remaining breast tumor-bearing mice were injected with CYP-loaded NPs (dose of 0.3 mg/kg) as a treatment group. […]

[3] = tumor-bearing mice, 25 days, vs untreated group; CYP 0.3 mg/kg BW
Experimental: Approximately 1 × 10^5 4T1 cells/100 µL in PBS were subcutaneously injected on the mammary pad. […] The length and width of an outgrowth tumor were estimated in mm by using a digital Vernier caliper over the period of 27 days, and the mice were sacrificed humanely via euthanasia, followed by measuring the weight of different organs of the mice. The body weights of mice with an induced tumor were measured in three-day intervals. The tumor volume data were presented as means ± SD of five different mice from each group.
For the tumor regression study, one group of tumor-bearing mice was kept untreated as a negative control, the other tumor-bearing mice groups were treated with drug-free NPs or CYP only (dose of 0.3 mg/kg) as a positive control, and the remaining breast tumor-bearing mice were injected with CYP-loaded NPs (dose of 0.3 mg/kg) as a treatment group. […] The treatment was given at day 14 from tumor inoculation through the right or left caudal tail-vein, and the tumor volume was checked throughout the treatment period using a digital Vernier caliper.

With `COc1cccc2c1C(=O)c1c(O)c3c(c(O)c1C2=O)C[C@@](O)(C(=O)CO)C[C@@H]3O[C@H]1C[C@H](N)[C@H](O)[C@H](C)O1` [Free DOX, doxorubicin] the “serum drug concentration, 2 h (%)” value ([1]; 2 h, Supplementary Table 3) was 2.02%, the “serum drug concentration, 24 h (%)” value ([1]; 24 h, Supplementary Table 3) was 1.71% and the “serum drug concentration, 2 h” value ([1]; DOX 5 mg/kg, 2 h) was 110.53 ± 11.83 ng/100 μL. For the same compound, the “blood serum fluorescence, 2 h” value ([1]; DOX 5 mg/kg, 2 h (Figure 6)) was 1008.3 ± 431.41 RFU/100 µL, the “serum drug concentration, 24 h” value ([1]; DOX 5 mg/kg, 24 h) was 93.74 ± 3.89 ng/100 μL and the DOX in heart ([2]; 2 h) was 2.86 ± 0.23 ng/mg. It also gave a DOX in kidney ([2]; 2 h) of 1.45 ± 0.01 ng/mg, a DOX in liver ([2]; 2 h) of 0.3 ± 0.01 ng/mg and a DOX in lungs ([2]; 2 h) of 0.11 ± 0.01 ng/mg. It also gave a DOX in spleen ([2]; 2 h) of 0.13 ± 0.01 ng/mg, a DOX in tumor ([2]; 2 h) of 0.37 ± 0.01 ng/mg and a DOX in tumor ([2]; 2 h, listed as free DOX) of 0.37 ± 0.002 ng/mg. For the same compound, the DOX in heart ([2]; 24 h) was 4.28 ± 0.63 ng/mg, the DOX in kidney ([2]; 24 h) was 1.45 ± 0.01 ng/mg and the DOX in liver ([2]; 24 h) was 1.18 ± 0.31 ng/mg. For the same compound, the DOX in lungs ([2]; 24 h) was 0.14 ± 0.01 ng/mg, the DOX in spleen ([2]; 24 h) was 0.14 ± 0.01 ng/mg and the DOX in tumor ([2]; 24 h) was 0.37 ± 0.01 ng/mg. For the same compound, the “organ distribution, brain (%)” value ([2]; 2 h, Supplementary Table 1) was 0.13%, the “organ distribution, heart (%)” value ([2]; 2 h, Supplementary Table 1) was 0.41% and the “organ distribution, kidney (%)” value ([2]; 2 h, Supplementary Table 1) was 0.42%. For the same compound, the “organ distribution, liver (%)” value ([2]; 2 h, Supplementary Table 1) was 0.35%, the “organ distribution, lungs (%)” value ([2]; 2 h, Supplementary Table 1) was 0.08% and the “organ distribution, spleen (%)” value ([2]; 2 h, Supplementary Table 1) was 0.08%. For the same compound, the “organ distribution, tumor (%)” value ([2]; 2 h, Supplementary Table 1) was 0.08%, the “organ distribution, brain (%)” value ([2]; 24 h, Supplementary Table 2) was 0.47% and the “organ distribution, heart (%)” value ([2]; 24 h, Supplementary Table 2) was 0.62%. For the same compound, the “organ distribution, kidney (%)” value ([2]; 24 h, Supplementary Table 2) was 0.42%, the “organ distribution, liver (%)” value ([2]; 24 h, Supplementary Table 2) was 1.38% and the “organ distribution, lungs (%)” value ([2]; 24 h, Supplementary Table 2) was 0.08%. For the same compound, the “organ distribution, spleen (%)” value ([2]; 24 h, Supplementary Table 2) was 0.08% and the “organ distribution, tumor (%)” value ([2]; 24 h, Supplementary Table 2) was 0.08%.
With `O=P1(N(CCCl)CCCl)NCCCO1` (stereo not drawn) [free CYP, cyclophosphamide] the “tumor size at first treatment” value (4T1 cells; day 14 after tumor inoculation, when first treatment was administered) was 145.89 ± 33.53 mm^3, the “tumor size, times less than the untreated group” value (4T1 cells; day 27) was roughly 3.5 and the tumor size (4T1 cells; day 27, IV, three doses every two days from day 14, CYP 0.3 mg/kg where drug present) was 633.33 ± 121.16 mm^3. The “body weight gain / visible toxicity” value [3] was “significantly slowed the gain”.
